One test concerns M. suipneumoniae JF 435. In words: MIC against Mycoplasma, in vitro agar dilution. Type of test: cell-based. The settings on record: Mesomycoplasma hyopneumoniae, JF435, 144 h; Friis broth solidified with 0.9% agarose, 10^3 to 10^5 C.F.U., 6 days at 37°C; read-out: MIC's against M. suipneumoniae JF 435. A general note: In agar dilution, organisms are placed on agar that contains the substance at set levels.

For another test, the system named is Strep. agalactiae SPA1. In words: MIC against Veterinary Bacteria, in vitro agar dilution. The settings on record: Streptococcus agalactiae, SPA1, 18 h, read-out: MIC's against Strep. agalactiae SPA1.
The next test deals with Strep. dysgalactiae SPD1. Described as above. To be noted: Streptococcus dysgalactiae, SPD1, 18 h, read-out: MIC's against Strep. dysgalactiae SPD1.
The next test concerns M. suipneumoniae HK(2). In words: MIC against Mycoplasma, in vitro agar dilution. Type of test: cell-based. The settings on record: Mesomycoplasma hyopneumoniae, 144 h; Friis broth solidified with 0.9% agarose, 10^3 to 10^5 C.F.U., 6 days at 37°C; read-out: MIC's against M. suipneumoniae HK(2).
The subject of test [1] is M. hyosynoviae ATCC 25591. In words: MIC against Mycoplasma, in vitro agar dilution. Type of test: cell-based. To be noted: 144 h; Friis broth solidified with 0.9% agarose, 10^3 to 10^5 C.F.U., 6 days at 37°C; read-out: MIC's against M. hyosynoviae ATCC 25591.
The next test relates to Strep. uberis SPU1. In words: MIC against Veterinary Bacteria, in vitro agar dilution. The settings on record: Streptococcus uberis, SPU1, 18 h, read-out: MIC's against Strep. uberis SPU1.
The next test has as its system Past. haemolytica PA5. The test is described as above. The settings on record: Mannheimia haemolytica, PA5, 18 h, read-out: MIC's against Past. haemolytica PA5.
Another test relates to S. typhimurium S18. Described as above. To be noted: Salmonella enterica, TYPHIMURIUM, 18 h, read-out: MIC's against S. typhimurium S18.
In a further test the test system is M. suipneumoniae UCD 1. In words: MIC against Mycoplasma, in vitro agar dilution. Type of test: cell-based. The settings on record: Mesomycoplasma hyopneumoniae, UCD1, 144 h; Friis broth solidified with 0.9% agarose, 10^3 to 10^5 C.F.U., 6 days at 37°C; read-out: MIC's against M. suipneumoniae UCD 1.
In a further test the test system is M. bovis NCTC 10131. In words: microbe, parasite or virus in culture. Type of test: cell-based. The settings on record: NCTC10131, 144 h, read-out: MIC's against M. bovis NCTC 10131.
For the next test, the system named is Bord. bronchiseptica B08. In words: MIC against Veterinary Bacteria, in vitro agar dilution. To be noted: Bordetella bronchiseptica, B08, 18 h, read-out: MIC's against Bord. bronchiseptica B08.
Test [2] deals with M. suipneumoniae PW/C/210. In words: MIC against Mycoplasma, in vitro agar dilution. The settings on record: Mesomycoplasma hyopneumoniae, 144 h; Friis broth solidified with 0.9% agarose, 10^3 to 10^5 C.F.U., 6 days at 37°C; read-out: MIC's against M. suipneumoniae PW/C/210. Type of test: cell-based.
The next test concerns M. suipneumoniae NB12. In words: MIC against Mycoplasma, in vitro agar dilution. Type of test: cell-based. The settings on record: Mesomycoplasma hyopneumoniae, NB12, 144 h; Friis broth solidified with 0.9% agarose, 10^3 to 10^5 C.F.U., 6 days at 37°C; read-out: MIC's against M. suipneumoniae NB12.
The next test deals with M. suipneumoniae MS 16. In words: MIC against Mycoplasma, in vitro agar dilution. To be noted: Mesomycoplasma hyopneumoniae, MS16, 144 h; Friis broth solidified with 0.9% agarose, 10^3 to 10^5 C.F.U., 6 days at 37°C; read-out: MIC's against M. suipneumoniae MS 16. Type of test: cell-based.

SMILES strings stand for the structures. ≈ marks a conversion by molar mass, not a printed value. Bounds are passed on as bounds.

Description for Bord. bronchiseptica B08: (§1) The activity of the compounds of the Examples against various veterinarily important bacteria, was assayed in vitro using two-fold serial dilutions in Diagnostic Sensitivity Test Agar inoculated with 10^4 organisms.
Description for Past. haemolytica PA5: as §1
Description for S. typhimurium S18: as §1
Description for Strep. agalactiae SPA1: as §1
Description for Strep. dysgalactiae SPD1: as §1
Description for Strep. uberis SPU1: as §1

As for `COC(=O)C(C)=C(C)CC1OCC(CC2OC2C(C)C(C)O)C(O)C1O` [Example 2, Methyl 4-[5S-(2S,3S-epoxy-5S-hydroxy-4S-methylhexyl)-3R,4R-dihydroxytetrahydropyran-2S-yl]-2,3-dimethylbut-2(E)-enoate], the MIC in the test on M. suipneumoniae JF 435 was 10 µg/mL (≈ 26.8 µM); in the test with Strep. agalactiae SPA1, 80 µg/mL (≈ 215 µM); in the test with Strep. dysgalactiae SPD1 it was 40 µg/mL (≈ 107 µM); in the test on M. suipneumoniae HK(2), 10 µg/mL (≈ 26.8 µM); in [1] it was 5 µg/mL (≈ 13.4 µM); with Strep. uberis SPU1 it was 20 µg/mL (≈ 53.7 µM). In addition, the MIC with Past. haemolytica PA5 was 40 µg/mL (≈ 107 µM); in the test with S. typhimurium S18, over 80 µg/mL; in the test with M. suipneumoniae UCD 1 it was 10 µg/mL (≈ 26.8 µM); with M. bovis NCTC 10131, 0.25 µg/mL (≈ 0.671 µM); with Bord. bronchiseptica B08, over 80 µg/mL; in test [2], 5 µg/mL (≈ 13.4 µM). For the same compound, the MIC in the test with M. suipneumoniae NB12 and in the test on M. suipneumoniae MS 16 was 5 µg/mL (≈ 13.4 µM) in each case.

Consider `CC(CC1OCC(CC2OC2C(C)C(C)O)C(O)C1O)=C(C)C(=O)OCc1cccc([N+](=O)[O-])c1` [Example 3, m-Nitrobenzyl 4-[5S-(2S,3S-epoxy-5S-hydroxy-4S-methylhexyl)-3R,4R-dihydroxytetrahydropyran-2S-yl]-2,3-di-methylbut-2(E)-enoate], for which the MIC was 0.1 µg/mL (≈ 0.203 µM) with M. suipneumoniae JF 435; 1.25 µg/mL (≈ 2.53 µM) in the test with Strep. agalactiae SPA1; 0.312 µg/mL (≈ 0.632 µM) with Strep. dysgalactiae SPD1; 0.1 µg/mL (≈ 0.203 µM) with M. suipneumoniae HK(2); 0.25 µg/mL (≈ 0.507 µM) in [1]; 0.156 µg/mL (≈ 0.316 µM) in the test on Strep. uberis SPU1. Further, the MIC with Past. haemolytica PA5 was 10 µg/mL (≈ 20.3 µM); in the test with S. typhimurium S18, over 80 µg/mL; in the test on M. suipneumoniae UCD 1, 0.05 µg/mL (≈ 0.101 µM); with M. bovis NCTC 10131, 0.025 µg/mL (≈ 0.0507 µM); with Bord. bronchiseptica B08 it was 80 µg/mL (≈ 162 µM); in test [2] it was 0.025 µg/mL (≈ 0.0507 µM). For the same compound, the values for the MIC with M. suipneumoniae NB12 and in the test with M. suipneumoniae MS 16 were 0.05 µg/mL (≈ 0.101 µM) and 0.025 µg/mL (≈ 0.0507 µM), respectively.

`CCOC(=O)C(C)=C(C)CC1OCC(CC2OC2C(C)C(C)O)C(O)C1O` [Example 1, Ethyl 4-[5S-(2S,3S-epoxy-5S-hydroxy-4S-methylhexyl)-3R,4R-dihydroxytetrahydropyran-2S-yl]-2,3-dimethylbut-2(E)-enoate]: the MIC is 1 µg/mL (≈ 2.59 µM) with M. suipneumoniae JF 435; 5 µg/mL (≈ 12.9 µM) in the test on Strep. agalactiae SPA1; 5 µg/mL (≈ 12.9 µM) in the test with Strep. dysgalactiae SPD1; 1 µg/mL (≈ 2.59 µM) in the test with M. suipneumoniae HK(2); 1 µg/mL (≈ 2.59 µM) in test [1]; 1.25 µg/mL (≈ 3.23 µM) in the test with Strep. uberis SPU1. For the same compound, the MIC in the test with Past. haemolytica PA5 is 20 µg/mL (≈ 51.7 µM); in the test with S. typhimurium S18, over 80 µg/mL; with M. suipneumoniae UCD 1 it was 2.5 µg/mL (≈ 6.47 µM); in the test on M. bovis NCTC 10131, 0.05 µg/mL (≈ 0.129 µM); in the test with Bord. bronchiseptica B08 it was over 80 µg/mL; in [2], 0.5 µg/mL (≈ 1.29 µM). Further, the MIC is 1 µg/mL (≈ 2.59 µM) in the test on M. suipneumoniae NB12 and 0.5 µg/mL (≈ 1.29 µM) in the test on M. suipneumoniae MS 16.

Turning to `CC(CC1OCC(CC2OC2C(C)C(C)O)C(O)C1O)=C(C)C(=O)O` [Example 4, Sodium 4-[5S-(2S, 35-epoxy-5S-hydroxy-4S-methylhexyl)-3R,4R-dihydroxytetrahydropyran-2S-yl]-2,3-dimethylbut-2(E)-enoate], the MIC is 0.25 µg/mL in the test with M. suipneumoniae JF 435; 1.25 µg/mL with Strep. agalactiae SPA1; 1.25 µg/mL in the test on Strep. dysgalactiae SPD1; 0.25 µg/mL with M. suipneumoniae HK(2); 0.25 µg/mL in test [1]; 0.156 µg/mL with Strep. uberis SPU1. Further, the MIC in the test with Past. haemolytica PA5 was 10 µg/mL; in the test on S. typhimurium S18, over 80 µg/mL; in the test on M. suipneumoniae UCD 1 it was 0.25 µg/mL; with M. bovis NCTC 10131 it was 0.025 µg/mL; with Bord. bronchiseptica B08, over 80 µg/mL; in [2], 0.1 µg/mL. The MIC in the test with M. suipneumoniae NB12 amounted to 0.25 µg/mL; in the test on M. suipneumoniae MS 16, 0.1 µg/mL.

For the origin of these results see patent EP0090603A2, “Antibacterial compounds” (BEECHAM GROUP PLC, priority 1982, dated 1983).
